# Calls of active or inactive are those of the source. No cut-off for these calls is given here.
# Tests used:
# [1] = Toxicity in male Sprague-Dawley rat assessed as change in prolactin level at 2.5 to 7.5 mg/kg, po administered once daily for 4 weeks and measured after 4 weeks; format: organism-based; details: in vivo, 1344 h, dose 2.5-7.5 mg/kg, time 8 weeks
# [2] = Toxicity in male Beagle dog assessed as change in prolactin at 0.75 to 2.5 mg/kg, IG administered once daily for 4 weeks and measured after 4 weeks; format: organism-based, Canis lupus familiaris; details: in vivo, po, 1344 h, dose 0.75-2.5 mg/kg, time 8 weeks
# [3] = Toxicity in Sprague-Dawley rat assessed as animal death 2.5 to 7.5 mg/kg, po administered once daily for 4 weeks; format: organism-based; details: in vivo, 672 h, dose 2.5-7.5 mg/kg
# [4] = Toxicity in male Sprague-Dawley rat assessed as change in organ weight at 2.5 to 7.5 mg/kg, po administered once daily for 4 weeks and measured after 4 weeks; format: organism-based; details: in vivo, 1344 h, dose 2.5-7.5 mg/kg, time 8 weeks
# [5] = Toxicity in male Sprague-Dawley rat assessed as piloerection at 7.5 mg/kg, po administered once daily for 4 weeks; format: organism-based; details: in vivo, 672 h
# Mus musculus [6] = test: Antipsychotic activity in amyloid beta (1 to 42) induced hyperlocomotion in mouse model assessed as decrease in total distance traveled at 10 mg/kg by open field test; format: functional, organism-based
# [7] = Toxicity in female Beagle dog assessed as change in body temperature at 0.75 to 2.5 mg/kg, IG administered once daily for 4 weeks and measured after 4 weeks; format: organism-based, Canis lupus familiaris; details: in vivo, po, 1344 h, dose 0.75-2.5 mg/kg, time 8 weeks
# Mus musculus [8] = test: Antipsychotic activity against methamphetamine-induced hyperlocomotion in male C57BL/6J mouse model assessed as reduction in hyperlocomotive state at 10 mg/kg, IG pretreated with compound followed by methamphetamine addition and measured after 30 mins by open field test; format: functional, organism-based
# [9] = Toxicity in female Beagle dog assessed as change in urinalysis at 0.75 to 2.5 mg/kg, IG administered once daily for 4 weeks and measured after 4 weeks; format: organism-based, Canis lupus familiaris; details: in vivo, po, 1344 h, dose 0.75-2.5 mg/kg, time 8 weeks
# [10] = Toxicity in female Sprague-Dawley rat assessed as piloerection at 7.5 mg/kg, po administered once daily for 4 weeks; format: organism-based; details: in vivo, 672 h
# [11] = Toxicity in female Sprague-Dawley rat assessed as change in organ weight at 2.5 to 7.5 mg/kg, po administered once daily for 4 weeks and measured after 4 weeks; format: organism-based; details: in vivo, 1344 h, dose 2.5-7.5 mg/kg, time 8 weeks
# [12] = target: Kappa-type opioid receptor (Homo sapiens) (UniProt P41145); test: Binding affinity to op-kappa receptor (unknown origin) at 10 uM by radioligand binding assay relative to control
# [13] = Toxicity in female Sprague-Dawley rat assessed as change in urinalysis at 2.5 to 7.5 mg/kg, po administered once daily for 4 weeks and measured after 4 weeks; format: organism-based; details: in vivo, 1344 h, dose 2.5-7.5 mg/kg, time 8 weeks
# [14] = Toxicity in female Sprague-Dawley rat assessed as piloerection at 7.5 mg/kg, po administered once daily for 4 weeks and measured after 4 weeks; format: organism-based; details: in vivo, 1344 h, time 8 weeks
# [15] = Toxicity in male Sprague-Dawley rat assessed as change in urinalysis at 2.5 to 7.5 mg/kg, po administered once daily for 4 weeks and measured after 4 weeks; format: organism-based; details: in vivo, 1344 h, dose 2.5-7.5 mg/kg, time 8 weeks
# [16] = Toxicity in male Beagle dog assessed as change in hematology at 0.75 to 2.5 mg/kg, IG administered once daily for 4 weeks and measured after 4 weeks; format: organism-based, Canis lupus familiaris; details: in vivo, po, 1344 h, dose 0.75-2.5 mg/kg, time 8 weeks
# [17] = target: Neuronal acetylcholine receptor subunit alpha-7 (Homo sapiens) (UniProt P36544); test: Binding affinity to nACHR-alpha7 (unknown origin) at 10 uM by radioligand binding assay relative to control
# [18] = Toxicity in female Sprague-Dawley rat assessed as irritability at 2.5 mg/kg, po administered once daily for 4 weeks and measured after 4 weeks; format: organism-based; details: in vivo, 1344 h, time 8 weeks
# [19] = target: Beta-2 adrenergic receptor (Homo sapiens) (UniProt P07550); test: Binding affinity to beta 2 receptor (unknown origin) at 10 uM by radioligand binding assay relative to control
# Cytochrome P450 2C19 = Cytochrome P450 2C19 (Homo sapiens, UniProt P33261); test: Inhibition of CYP2C19 in human liver microsomes in presence of NADPH by LC-MS/MS analysis; format: ADME, Microsome
# [20] = target: Alpha-1A adrenergic receptor (Homo sapiens) (UniProt P35348); test: Binding affinity to alpha 1A (unknown origin) at 10 uM by radioligand binding assay relative to control
# [21] = Toxicity in female Beagle dog assessed as somnolence at 2.5 mg/kg, IG administered once daily for 4 weeks; format: organism-based, Canis lupus familiaris; details: in vivo, po, 672 h
# Mus musculus [22] = test: Antipsychotic activity against MK-801 induced hypermobilization in male C57BL/6J mouse model assessed as reduction in hypermobilization state at 10 mg/kg, IG pretreated with compound followed by MK-801 addition and measured after 30 mins by open field test; format: functional, organism-based
# [23] = target: Muscarinic acetylcholine receptor M2 (Homo sapiens) (UniProt P08172); test: Binding affinity to M2 receptor (unknown origin) at 10 uM by radioligand binding assay relative to control
# Mus musculus [24] = test: Antipsychotic activity against MK-801 induced hypermobilization in male C57BL/6J mouse model assessed as reduction in hypermobilization state at 3 mg/kg, IG pretreated with compound followed by MK-801 addition and measured after 30 mins by open field test; format: functional, organism-based
# Mus musculus [25] = test: Antipsychotic activity in amyloid beta(1 to 42) induced cognitive impairment in mouse model assessed as reduction in exploration time at 1 mg/kg, IG measured after 24 hrs by novel object recognition test; format: functional, organism-based
# [26] = Toxicity in female Beagle dog assessed as minimal decrease activity at 2.5 mg/kg, IG administered once daily for 4 weeks and measured after 4 weeks; format: organism-based, Canis lupus familiaris; details: in vivo, po, 1344 h, time 8 weeks
# [27] = Toxicity in Sprague-Dawley rat assessed as normal spontaneous movement at 2.5 to 7.5 mg/kg, po administered once daily for 4 weeks and measured after 4 weeks; format: organism-based; details: in vivo, 1344 h, dose 2.5-7.5 mg/kg, time 8 weeks
# [28] = Toxicity in male Sprague-Dawley rat assessed as corneal epithelial degeneration at 7.5 mg/kg, po administered once daily for 4 weeks; format: organism-based; details: in vivo, 672 h
# [29] = target: Tyrosine-protein kinase Lck (Homo sapiens) (UniProt P06239); test: Binding affinity to LCK receptor (unknown origin) at 10 uM by radioligand binding assay relative to control
# [30] = target: 5-hydroxytryptamine receptor 2C (Mus musculus, UniProt P34968); test: Agonist activity at mouse 5-HT2CR; format: functional
# [31] = Drug concentration in male Sprague-Dawley rat brain at 5 mg/kg, IG measured after 6 hrs by LC-MS/MS analysis; format: ADME, organism-based; details: in vivo, po
# [32] = Toxicity in male Sprague-Dawley rat assessed as irritability at 2.5 mg/kg, po administered once daily for 4 weeks; format: organism-based; details: in vivo, 672 h
# [33] = Toxicity in male Sprague-Dawley rat assessed as irritability at 2.5 mg/kg, po administered once daily for 4 weeks and measured after 4 weeks; format: organism-based; details: in vivo, 1344 h, time 8 weeks
# [34] = test system: 5-hydroxytryptamine receptor 2C (Homo sapiens), P28335 [D134A]; test: Agonist activity at 5HT2CR D134A mutant (unknown origin) expressed in HEK293 cells assessed as IP1 level by HTRF IP1 competitive binding assay; format: cell-based
# [35] = Toxicity in male Beagle dog assessed as change in blood pressure at 0.75 to 2.5 mg/kg, IG administered once daily for 4 weeks and measured after 4 weeks; format: organism-based, Canis lupus familiaris; details: in vivo, po, 1344 h, dose 0.75-2.5 mg/kg, time 8 weeks
# KCNQ1 = KCNQ1 (Homo sapiens, UniProt P51787); test: Binding affinity to human KCNQ1 receptor at 10 uM by radioligand binding assay relative to control; details: read-out: Activity
# Sequence of KCNQ1 (P51787 whole entry): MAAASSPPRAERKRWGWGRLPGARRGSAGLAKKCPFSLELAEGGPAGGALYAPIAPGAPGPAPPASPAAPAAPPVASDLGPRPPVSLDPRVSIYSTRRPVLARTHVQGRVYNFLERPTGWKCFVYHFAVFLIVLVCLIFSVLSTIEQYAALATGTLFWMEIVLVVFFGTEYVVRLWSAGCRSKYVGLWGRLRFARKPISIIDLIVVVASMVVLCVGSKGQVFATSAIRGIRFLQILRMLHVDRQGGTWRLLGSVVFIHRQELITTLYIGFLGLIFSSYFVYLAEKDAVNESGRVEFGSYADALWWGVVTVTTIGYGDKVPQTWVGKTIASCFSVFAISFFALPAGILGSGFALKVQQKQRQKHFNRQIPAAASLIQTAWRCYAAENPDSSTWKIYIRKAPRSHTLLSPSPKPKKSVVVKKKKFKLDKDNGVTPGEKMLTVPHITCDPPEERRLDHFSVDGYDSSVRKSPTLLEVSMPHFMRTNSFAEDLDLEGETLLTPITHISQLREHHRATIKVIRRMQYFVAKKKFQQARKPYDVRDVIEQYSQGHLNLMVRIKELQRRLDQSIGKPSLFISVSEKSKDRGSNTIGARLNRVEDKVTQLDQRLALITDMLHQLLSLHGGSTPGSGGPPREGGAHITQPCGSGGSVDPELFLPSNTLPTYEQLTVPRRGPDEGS
# Sequence of Alpha-1A adrenergic receptor (Homo sapiens) (P35348 whole entry): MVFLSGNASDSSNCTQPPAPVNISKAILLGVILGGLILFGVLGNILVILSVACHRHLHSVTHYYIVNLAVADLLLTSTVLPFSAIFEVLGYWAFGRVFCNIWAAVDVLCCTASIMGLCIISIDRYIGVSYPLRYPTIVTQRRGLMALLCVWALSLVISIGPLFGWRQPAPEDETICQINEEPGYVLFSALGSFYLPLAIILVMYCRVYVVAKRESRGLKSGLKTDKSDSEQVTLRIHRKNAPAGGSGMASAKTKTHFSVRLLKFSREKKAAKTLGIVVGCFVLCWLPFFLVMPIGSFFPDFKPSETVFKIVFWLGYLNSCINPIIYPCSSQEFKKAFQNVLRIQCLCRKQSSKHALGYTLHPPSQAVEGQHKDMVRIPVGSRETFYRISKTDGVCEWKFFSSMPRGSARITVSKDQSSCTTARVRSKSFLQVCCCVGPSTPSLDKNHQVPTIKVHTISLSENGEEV
# Sequence of Kappa-type opioid receptor (Homo sapiens) (P41145 whole entry): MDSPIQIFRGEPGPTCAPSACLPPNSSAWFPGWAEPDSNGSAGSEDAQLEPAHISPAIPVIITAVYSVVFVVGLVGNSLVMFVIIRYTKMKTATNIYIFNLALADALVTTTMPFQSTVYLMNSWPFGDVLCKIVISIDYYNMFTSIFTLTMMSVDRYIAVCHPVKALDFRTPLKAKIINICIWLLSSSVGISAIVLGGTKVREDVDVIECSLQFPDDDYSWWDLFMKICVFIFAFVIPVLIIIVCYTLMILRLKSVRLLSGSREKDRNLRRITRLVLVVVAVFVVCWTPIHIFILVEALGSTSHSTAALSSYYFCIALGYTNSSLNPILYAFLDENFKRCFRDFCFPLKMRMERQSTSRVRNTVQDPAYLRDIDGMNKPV
# Sequence of Tyrosine-protein kinase Lck (Homo sapiens) (P06239 2-509 limits assumed): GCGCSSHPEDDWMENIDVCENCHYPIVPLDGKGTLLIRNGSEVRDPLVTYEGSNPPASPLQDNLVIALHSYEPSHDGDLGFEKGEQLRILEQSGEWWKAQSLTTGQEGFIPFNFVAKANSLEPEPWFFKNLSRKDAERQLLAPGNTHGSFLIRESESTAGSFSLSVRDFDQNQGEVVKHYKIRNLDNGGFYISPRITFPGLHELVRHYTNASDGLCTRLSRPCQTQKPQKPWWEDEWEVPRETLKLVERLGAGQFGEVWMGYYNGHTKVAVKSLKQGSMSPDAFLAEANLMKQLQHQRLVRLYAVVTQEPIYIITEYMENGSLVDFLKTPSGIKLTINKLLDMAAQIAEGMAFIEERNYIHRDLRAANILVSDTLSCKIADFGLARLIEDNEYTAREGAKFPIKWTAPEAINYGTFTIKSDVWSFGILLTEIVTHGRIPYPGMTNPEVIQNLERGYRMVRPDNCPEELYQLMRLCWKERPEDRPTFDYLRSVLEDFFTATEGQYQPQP
# Sequence of Cytochrome P450 2C19 (P33261 whole entry): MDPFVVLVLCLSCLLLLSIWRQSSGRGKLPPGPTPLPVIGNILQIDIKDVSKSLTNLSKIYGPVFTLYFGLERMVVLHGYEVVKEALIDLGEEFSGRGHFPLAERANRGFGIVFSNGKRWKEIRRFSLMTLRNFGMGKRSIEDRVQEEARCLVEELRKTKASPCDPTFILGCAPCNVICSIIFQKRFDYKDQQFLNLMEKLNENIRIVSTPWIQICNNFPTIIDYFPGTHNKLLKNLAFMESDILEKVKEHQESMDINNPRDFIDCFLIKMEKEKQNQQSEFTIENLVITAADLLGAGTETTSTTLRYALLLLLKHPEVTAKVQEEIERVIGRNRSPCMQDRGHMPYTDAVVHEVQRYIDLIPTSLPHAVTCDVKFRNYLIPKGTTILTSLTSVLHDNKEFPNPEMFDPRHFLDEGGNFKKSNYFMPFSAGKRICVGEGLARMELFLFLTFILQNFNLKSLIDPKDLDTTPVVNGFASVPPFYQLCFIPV
# Sequence of 5-hydroxytryptamine receptor 2C (P34968 whole entry): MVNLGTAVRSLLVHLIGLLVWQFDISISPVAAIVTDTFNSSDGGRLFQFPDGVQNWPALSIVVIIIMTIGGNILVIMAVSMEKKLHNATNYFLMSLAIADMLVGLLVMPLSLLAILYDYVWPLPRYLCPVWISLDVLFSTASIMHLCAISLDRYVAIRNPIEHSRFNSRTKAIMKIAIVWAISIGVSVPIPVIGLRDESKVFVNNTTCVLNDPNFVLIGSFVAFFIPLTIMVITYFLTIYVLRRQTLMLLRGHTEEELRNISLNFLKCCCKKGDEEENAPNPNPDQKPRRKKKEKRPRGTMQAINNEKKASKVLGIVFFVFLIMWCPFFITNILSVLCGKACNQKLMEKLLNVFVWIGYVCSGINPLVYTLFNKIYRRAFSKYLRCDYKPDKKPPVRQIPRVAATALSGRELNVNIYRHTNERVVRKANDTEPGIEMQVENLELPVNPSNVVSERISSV
# Sequence of Muscarinic acetylcholine receptor M2 (Homo sapiens) (P08172 whole entry): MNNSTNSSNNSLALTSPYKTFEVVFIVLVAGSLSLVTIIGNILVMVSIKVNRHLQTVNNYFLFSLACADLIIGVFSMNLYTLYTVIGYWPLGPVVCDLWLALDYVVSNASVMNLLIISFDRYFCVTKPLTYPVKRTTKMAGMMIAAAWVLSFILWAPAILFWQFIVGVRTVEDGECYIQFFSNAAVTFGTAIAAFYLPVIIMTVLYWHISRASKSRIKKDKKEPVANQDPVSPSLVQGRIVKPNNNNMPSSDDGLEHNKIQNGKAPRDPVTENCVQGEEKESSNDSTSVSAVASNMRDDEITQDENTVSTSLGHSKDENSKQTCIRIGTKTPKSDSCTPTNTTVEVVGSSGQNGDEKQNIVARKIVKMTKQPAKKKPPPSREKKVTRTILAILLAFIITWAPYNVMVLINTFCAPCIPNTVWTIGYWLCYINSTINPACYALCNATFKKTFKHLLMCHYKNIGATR
# Sequence of Neuronal acetylcholine receptor subunit alpha-7 (Homo sapiens) (P36544 whole entry): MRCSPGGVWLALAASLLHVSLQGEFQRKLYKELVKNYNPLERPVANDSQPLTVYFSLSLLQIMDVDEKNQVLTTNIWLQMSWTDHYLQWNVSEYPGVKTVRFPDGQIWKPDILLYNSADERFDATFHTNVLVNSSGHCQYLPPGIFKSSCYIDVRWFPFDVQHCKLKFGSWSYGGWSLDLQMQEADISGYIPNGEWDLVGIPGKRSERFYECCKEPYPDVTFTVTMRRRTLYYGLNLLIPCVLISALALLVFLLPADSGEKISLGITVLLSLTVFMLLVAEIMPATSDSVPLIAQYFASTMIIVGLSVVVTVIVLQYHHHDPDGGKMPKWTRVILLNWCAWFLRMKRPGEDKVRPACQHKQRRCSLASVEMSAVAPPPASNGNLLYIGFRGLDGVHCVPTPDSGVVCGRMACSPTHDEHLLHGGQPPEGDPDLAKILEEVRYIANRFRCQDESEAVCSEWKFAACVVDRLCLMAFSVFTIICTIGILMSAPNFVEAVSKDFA
# Sequence of Beta-2 adrenergic receptor (Homo sapiens) (P07550 whole entry, looked up): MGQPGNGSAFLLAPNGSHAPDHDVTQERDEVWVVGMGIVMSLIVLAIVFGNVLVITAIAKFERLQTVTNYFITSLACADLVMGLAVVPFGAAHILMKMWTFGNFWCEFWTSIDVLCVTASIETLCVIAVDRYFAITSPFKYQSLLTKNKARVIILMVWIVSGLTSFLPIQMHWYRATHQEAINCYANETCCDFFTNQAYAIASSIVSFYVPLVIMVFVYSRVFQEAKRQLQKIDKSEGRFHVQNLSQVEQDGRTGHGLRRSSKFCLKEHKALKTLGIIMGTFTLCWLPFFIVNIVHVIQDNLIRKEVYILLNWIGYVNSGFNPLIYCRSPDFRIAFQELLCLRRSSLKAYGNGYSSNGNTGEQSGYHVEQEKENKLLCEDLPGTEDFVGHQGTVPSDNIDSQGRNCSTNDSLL
# Sequence of 5-hydroxytryptamine receptor 2C (Homo sapiens), P28335 [D134A] (P28335 whole entry D134A): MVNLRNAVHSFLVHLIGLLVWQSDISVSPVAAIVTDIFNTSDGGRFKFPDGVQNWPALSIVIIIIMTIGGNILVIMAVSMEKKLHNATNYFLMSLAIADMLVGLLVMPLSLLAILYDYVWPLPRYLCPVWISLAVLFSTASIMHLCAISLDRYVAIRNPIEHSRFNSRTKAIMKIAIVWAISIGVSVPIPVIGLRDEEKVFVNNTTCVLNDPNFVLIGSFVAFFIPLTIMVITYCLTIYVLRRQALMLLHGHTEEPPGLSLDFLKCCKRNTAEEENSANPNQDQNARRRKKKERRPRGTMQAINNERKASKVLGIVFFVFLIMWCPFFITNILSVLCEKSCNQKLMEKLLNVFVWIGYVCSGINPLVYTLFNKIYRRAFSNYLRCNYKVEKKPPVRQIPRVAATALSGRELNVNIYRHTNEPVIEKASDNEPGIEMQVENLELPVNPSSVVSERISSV
smiles,measurement,setting,value
c1cc2c(s1)[C@@H]1CNCCN1CC2,Activity,[1],Non-toxic
same,Activity,[2],Non-toxic
same,Activity,[3],Non-toxic
same,Activity,[4],Non-toxic
same,Activity,[5],Toxic
same,Activity,Mus musculus [6],Active
same,Activity,[7],Non-toxic
same,Activity,Mus musculus [8],Active
same,Activity,[9],Non-toxic
same,Activity,[10],Toxic
same,Activity,[11],Non-toxic
same,Activity,[12],4.07%
same,Activity,[13],Non-toxic
same,Activity,[14],Non-toxic
same,Activity,[15],Non-toxic
same,Activity,[16],Non-toxic
same,Activity,[17],5.02%
same,Activity,[18],Non-toxic
same,Activity,[19],-12.2%
same,IC50,Cytochrome P450 2C19,> 50000 nM
same,Activity,[20],55%
same,Activity,[21],Toxic
same,Activity,Mus musculus [22],Active; Similar Effect Observed Compared To Brexpiprazole
same,Activity,[23],28.9%
same,Activity,Mus musculus [24],Active; More Effective Than Ulotaront
same,Activity,Mus musculus [25],Active
same,Activity,[26],Non-toxic
same,Activity,[27],Non-toxic
same,Activity,[28],Toxic
same,Activity,[29],3.4%
same,EC50,[30],74.4 nM
same,Ct,[31],3832 nmol/kg
same,Activity,[32],Toxic
same,Activity,[33],Non-toxic
same,Activity,[34],inactive
same,Activity,[35],Non-toxic
same,activity at 10 µM,KCNQ1,28.4%

# Source: ChEMBL document CHEMBL6109139, “Rational Design of the First Dual Agonist at Trace Amine-Associated Receptor 1 and 5-HT2C Receptors Based on Binding Pocket Similarity for the Treatment of Schizophrenia and Alzheimer's Disease-Related Psychosis” (J Med Chem, 2025)
